In brackets after ≈: the same amount, converted by molar mass. Some results are limits rather than exact numbers.

One test deals with B. cereus ATCC 11778. As to the kind of experiment: MIC, NCCLS broth microdilution assay. The test is classed as cell-based, Bacillus cereus. Particulars: B. cereus ATCC 11778. Background: Broth dilution looks for growth in wells or tubes with falling amounts of substance.
A further test deals with S. aureus ATCC 27660. Description: MIC, NCCLS broth microdilution assay. The test is classed as cell-based, Staphylococcus aureus. Particulars: S. aureus ATCC 27660, methicillin resistant strain (MRSA).
Test [1] concerns S. epidermidis ATCC 12228. Description: MIC, NCCLS broth microdilution assay. In kind it is cell-based, Staphylococcus epidermidis.
A further test deals with E. faecalis ATCC 29212. As to the kind of experiment: MIC, NCCLS broth microdilution assay. In kind it is cell-based, Enterococcus faecalis. Particulars: E. faecalis ATCC 29212.
In the next test the test system is E. coli ATCC 25922. As to the kind of experiment: MIC, NCCLS broth microdilution assay. In kind it is cell-based, Escherichia coli. To be noted: E. coli ATCC 25922.
For test [2], the system named is S. pneumoniae (ATCC 51422, PRSP). To be noted: S. pneumoniae ATCC 51422, penicillin resistant strain (PRSP). From the text:
(§1) In vitro biological activity data were collected for a variety of microorganisms, including Bacillus cereus (ATCC 11778), Staphylococcus aureus (ATCC 33591; ATCC 27660, a methicillin resistant strain (MRSA); ATCC 13709, a methicillin sensitive strain (MSSA)), Escherichia coli (ATCC 25922), Enterococcus faecalis (ATCC 29212), Streptococcus pneumoniae (ATCC 49619; ATCC 51422, a penicillin resistant strain (PRSP)), Enterococcus faecium (ATCC 51559, a vancomycin resistant strain (VRE)), and Staphylococcus epidermidis (ATCC 12228). Additionally, antifungal activity data were collected for Candida albicans (ATCC 38247).
(§2) Compounds according to this invention were screened for their in vitro activities against selected species of bacteria and fungi. The minimal inhibition concentration (MIC) of these compounds was determined using the National Committee for Clinical Laboratory Standards (NCCLS) broth microdilution assay in microtiter plates, as set forth in: (1) the guidelines of the National Committee for Clinical Laboratory Standards (NCCLS) Document M7-A4 (NCCLS, 1997); (2) the guidelines of the National Committee for Clinical Laboratory Standards (NCCLS) Document M11-A4 (NCCLS, 1997); and (3) the guidelines and reference method of the National Committee for Clinical Laboratory Standards (NCCLS) Document M27 -T (NCCLS, 1995). For antifungal assays, the method recommended in Murray, PR., 1995 Manual of Clinical Microbiology (ASM Press, Washington, D.C.), was employed.
(§3) (MIC values are keyed in the same manner as Table B.)

In test [3] the test system is E. faecium (ATCC 51559, VRE). To be noted: E. faecium ATCC 51559, vancomycin resistant strain (VRE).
Description: as §1, §2, §3

For another test, the system named is S. pneumoniae ATCC 49619. Description: MIC, NCCLS broth microdilution assay. Particulars: S. pneumoniae ATCC 49619. In kind it is cell-based, Streptococcus pneumoniae.
Another test has as its system S. aureus ATCC 33591. Description: MIC, NCCLS broth microdilution assay. In kind it is cell-based, Staphylococcus aureus. Particulars: S. aureus ATCC 33591.
The test system of a further test is S. aureus ATCC 13709. Description: MIC, NCCLS broth microdilution assay. The test is classed as cell-based, Staphylococcus aureus. To be noted: S. aureus ATCC 13709, methicillin sensitive strain (MSSA).
For another test, the system named is C. albicans ATCC 38247. As to the kind of experiment: MIC, antifungal assay. The test is classed as cell-based, Candida albicans. To be noted: C. albicans ATCC 38247.

Consider `NCCNc1snc(C(=O)Nc2ccc(-c3cc4ccccc4o3)cc2)c1Cl` [Compound A-3], for which the “Minimum Inhibitory Concentration (MIC)” value in the test with B. cereus ATCC 11778 was “+ (12 ≦ MIC ≦ 32)”; with S. aureus ATCC 27660, “+++ (MIC ≦ 4)”; in test [1] it was “+++ (MIC ≦ 4)”; in the test with E. faecalis ATCC 29212, “+++ (MIC ≦ 4)”; with E. coli ATCC 25922, over 32 mg/L; in test [2], “+ (12 ≦ MIC ≦ 32)”. The “Minimum Inhibitory Concentration (MIC)” value in test [3] is “+++ (MIC ≦ 4)”; in the test with S. pneumoniae ATCC 49619 it was “+ (12 ≦ MIC ≦ 32)”; with S. aureus ATCC 33591 it was “+++ (MIC ≦ 4)”; with S. aureus ATCC 13709 it was “+++ (MIC ≦ 4)”; in the test with C. albicans ATCC 38247, “+++ (MIC ≦ 4)”.
Turning to `CN(C)CCCNc1snc(C(=O)Nc2ccc(-c3cc4ccccc4o3)cc2)c1Cl` [Compound A-7], the “Minimum Inhibitory Concentration (MIC)” value in the test with B. cereus ATCC 11778 was “+++ (MIC ≦ 4)”; in the test on S. aureus ATCC 27660, “+++ (MIC ≦ 4)”; in test [1] it was “+++ (MIC ≦ 4)”; in the test on E. faecalis ATCC 29212 it was “+++ (MIC ≦ 4)”; in the test on E. coli ATCC 25922, over 32 mg/L; in test [2], “+ (12 ≦ MIC ≦ 32)”. In addition, the “Minimum Inhibitory Concentration (MIC)” value in test [3] is “+++ (MIC ≦ 4)”; in the test on S. pneumoniae ATCC 49619 it was “+ (12 ≦ MIC ≦ 32)”; in the test with S. aureus ATCC 33591, “+++ (MIC ≦ 4)”; in the test with S. aureus ATCC 13709 it was “+++ (MIC ≦ 4)”; in the test on C. albicans ATCC 38247 it was “++ (4 < MIC < 12)”.
On to `Cc1cc(NC(=O)c2nsc(NCCCN)c2Cl)ccc1-c1cc2ccccc2o1` [Compound A-34], for which the “Minimum Inhibitory Concentration (MIC)” value was “+++ (MIC ≦ 4)” with B. cereus ATCC 11778; “+++ (MIC ≦ 4)” with S. aureus ATCC 27660; “+++ (MIC ≦ 4)” in test [1]; “+++ (MIC ≦ 4)” with E. faecalis ATCC 29212; over 32 mg/L in the test with E. coli ATCC 25922; “+ (12 ≦ MIC ≦ 32)” in test [2]. In addition, the “Minimum Inhibitory Concentration (MIC)” value in test [3] was “+++ (MIC ≦ 4)”; in the test on S. pneumoniae ATCC 49619, “+ (12 ≦ MIC ≦ 32)”; with S. aureus ATCC 33591, “+++ (MIC ≦ 4)”; in the test with S. aureus ATCC 13709, “+++ (MIC ≦ 4)”; in the test with C. albicans ATCC 38247, “+++ (MIC ≦ 4)”.
Turning to `NCCCCNc1ncccc1C(=O)Nc1ccc(-c2cc3ccccc3o2)cc1` [Compound A-18], the “Minimum Inhibitory Concentration (MIC)” value was “+++ (MIC ≦ 4)” with B. cereus ATCC 11778; “+++ (MIC ≦ 4)” with S. aureus ATCC 27660; “+++ (MIC ≦ 4)” in test [1]; “++ (4 < MIC < 12)” in the test on E. faecalis ATCC 29212; over 32 mg/L in the test with E. coli ATCC 25922; “+++ (MIC ≦ 4)” in the test on S. pneumoniae ATCC 49619. Moreover, the “Minimum Inhibitory Concentration (MIC)” value in the test with S. aureus ATCC 33591 is given as “+++ (MIC ≦ 4)”; with S. aureus ATCC 13709 it was “+++ (MIC ≦ 4)”; in the test with C. albicans ATCC 38247, “++ (4 < MIC < 12)”.
For the compound `CN(C)CCCNc1snc(C(=O)Nc2ccc(-c3cc4ccccc4s3)cc2)c1Cl` [Compound A-47], the “Minimum Inhibitory Concentration (MIC)” value with B. cereus ATCC 11778 was over 32 mg/L; with S. aureus ATCC 27660, “+++ (MIC ≦ 4)”; in test [1] it was “+++ (MIC ≦ 4)”; in the test with E. faecalis ATCC 29212 it was “+++ (MIC ≦ 4)”; in the test with E. coli ATCC 25922 it was over 32 mg/L; with S. pneumoniae ATCC 49619 it was over 32 mg/L. Also, the “Minimum Inhibitory Concentration (MIC)” value in the test on S. aureus ATCC 33591, in the test on S. aureus ATCC 13709 and in the test with C. albicans ATCC 38247 was “+++ (MIC ≦ 4)” each time.
For the compound `NCCNc1ncccc1C(=O)Nc1ccc(-c2cc3ccccc3o2)cc1` [Compound A-19], the “Minimum Inhibitory Concentration (MIC)” value with B. cereus ATCC 11778 is “+++ (MIC ≦ 4)”; in the test with S. aureus ATCC 27660, “+++ (MIC ≦ 4)”; in test [1], “+++ (MIC ≦ 4)”; with E. faecalis ATCC 29212, “+++ (MIC ≦ 4)”; in the test on E. coli ATCC 25922, over 32 mg/L; in the test with S. pneumoniae ATCC 49619 it was “+ (12 ≦ MIC ≦ 32)”. Moreover, the “Minimum Inhibitory Concentration (MIC)” value in the test with S. aureus ATCC 33591 was “+++ (MIC ≦ 4)”; with S. aureus ATCC 13709 it was “+++ (MIC ≦ 4)”; with C. albicans ATCC 38247, “++ (4 < MIC < 12)”.
As to `Cc1cc(NC(=O)c2nsc(NCCN3CCCCC3)c2Cl)ccc1-c1cc2ccccc2o1` [Compound A-32], the MIC is over 32 mg/L with B. cereus ATCC 11778 (Bacillus cereus, ATCC11778, read-out: Minimum Inhibitory Concentration (MIC)); under 4 mg/L in the test on S. aureus ATCC 27660 (Staphylococcus aureus, ATCC 27660 / MRSA, read-out: Minimum Inhibitory Concentration (MIC)); under 4 mg/L in test [1] (Staphylococcus epidermidis, ATCC12228, read-out: Minimum Inhibitory Concentration (MIC)); under 4 mg/L in the test on E. faecalis ATCC 29212 (Enterococcus faecalis, ATCC29212, read-out: Minimum Inhibitory Concentration (MIC)); 12 to 32 mg/L (≈ 24.2 to 64.6 µM) in the test on E. coli ATCC 25922 (Escherichia coli, ATCC25922, read-out: Minimum Inhibitory Concentration (MIC)); under 4 mg/L in the test on S. aureus ATCC 33591 (Staphylococcus aureus, ATCC33591, read-out: Minimum Inhibitory Concentration (MIC)). For the same compound, the MIC in the test with S. aureus ATCC 13709 (Staphylococcus aureus, ATCC 13709 / MSSA, read-out: Minimum Inhibitory Concentration (MIC)) is under 4 mg/L; in the test on C. albicans ATCC 38247 (Candida albicans, ATCC38247, read-out: Minimum Inhibitory Concentration (MIC)) it was 4 to 12 mg/L (≈ 8.08 to 24.2 µM).
For the compound `CN(CCCN)CCCNc1snc(C(=O)Nc2ccc(-c3cc4ccccc4o3)cc2)c1Cl` [Compound A-8], the “Minimum Inhibitory Concentration (MIC)” value was “+++ (MIC ≦ 4)” in the test on B. cereus ATCC 11778; “+++ (MIC ≦ 4)” in the test on S. aureus ATCC 27660; “+++ (MIC ≦ 4)” in test [1]; “+++ (MIC ≦ 4)” in the test with E. faecalis ATCC 29212; “+ (12 ≦ MIC ≦ 32)” in the test with E. coli ATCC 25922; “+ (12 ≦ MIC ≦ 32)” with S. pneumoniae ATCC 49619. Besides, the “Minimum Inhibitory Concentration (MIC)” value with S. aureus ATCC 33591 is “+++ (MIC ≦ 4)”; with S. aureus ATCC 13709 it was “+++ (MIC ≦ 4)”; with C. albicans ATCC 38247, “++ (4 < MIC < 12)”.
Take `O=C(Nc1ccc(-c2cc3ccccc3s2)cc1)c1cccnc1NCCN1CCCC1` [Compound A-49]: the “Minimum Inhibitory Concentration (MIC)” value in the test with B. cereus ATCC 11778 is “+++ (MIC ≦ 4)”; with S. aureus ATCC 27660, “+++ (MIC ≦ 4)”; in test [1], “+++ (MIC ≦ 4)”; with E. faecalis ATCC 29212 it was “+++ (MIC ≦ 4)”; with E. coli ATCC 25922 it was over 32 mg/L; in the test with S. pneumoniae ATCC 49619 it was “+ (12 ≦ MIC ≦ 32)”. In addition, the “Minimum Inhibitory Concentration (MIC)” value in the test on S. aureus ATCC 33591, in the test on S. aureus ATCC 13709 and in the test with C. albicans ATCC 38247 was “+++ (MIC ≦ 4)” in each case.
On to `CN(C)CCCNc1ncccc1C(=O)Nc1ccc(-c2cc3ccccc3s2)cc1` [Compound A-50], for which the “Minimum Inhibitory Concentration (MIC)” value in the test on B. cereus ATCC 11778 was “+++ (MIC ≦ 4)”; in the test on S. aureus ATCC 27660, “+++ (MIC ≦ 4)”; in [1] it was “+++ (MIC ≦ 4)”; in the test with E. faecalis ATCC 29212 it was “+++ (MIC ≦ 4)”; with E. coli ATCC 25922 it was over 32 mg/L; with S. pneumoniae ATCC 49619, “+ (12 ≦ MIC ≦ 32)”. The “Minimum Inhibitory Concentration (MIC)” value in the test on S. aureus ATCC 33591, in the test on S. aureus ATCC 13709 and with C. albicans ATCC 38247 was “+++ (MIC ≦ 4)” throughout.
